Source: patent publication US20110281289A1, “QUANTIFICATION OF ENZYME ACTIVITY BY MASS SPECTROMETRY USING IMMOBILIZED SUBSTRATES” (LUDWIG INSTITUTE FOR CANCER RESEARCH LTD., priority 2008, published 2011)

Columns and labels:
Format in all cases: cell-based
PI3K [1] = assay: Multiplex kinase assay on immobilized full length protein substrates (pool 1, pool 2) with lysates of P31-Fuj AML cells, LC-MS readout; set-up: relative kinase activity (normalized to mean of control and treated, log 2 converted), phosphopeptide SMAD-1 RVESPVLPPVLVPR SEQ ID NO: 5: dose or concentration left out as unconfirmed
Protocol: P31-Fuj AML cells were seeded at a density of 500000 cells/mL. […] Cells were washed twice in ice cold PBS containing 100 mM NaVO3 and 1 mM NaF and were subsequently harvested and lysed in the following lysis buffer: 40 mM Hepes pH 7.5, 120 mM NaCl, 1 mM EDTA, 10 mM pyrophosphate, 10 mM glycerophosphate, 50 mM NaF, 0.5 mM orthovanadate, 0.3% CHAPS, and complete protease inhibitors (Roche). […] After allowing the reactions to occur in the presence of ATP and Mg^2+, samples were trypsin digested and subject to LC-MS analysis. […] Data from a peptide kinase assay using the Aktide peptide (a peptide substrate with sequence RPRAATF—SEQ ID NO: 24—known to provide a readout of PI3K pathway activation) was compared with the data from a multiplex kinase assay using full length protein substrates.

PI3K [2] = assay: Peptide kinase assay using the Aktide peptide (protocols of WO 07/127,767) with P31-Fuji total cell lysates; settings: P31-Fuji cells treated with LY294002 before lysis, vs control
Description: Data from a peptide kinase assay using the Aktide peptide (a peptide substrate with sequence RPRAATF—SEQ ID NO: 24—known to provide a readout of PI3K pathway activation) was compared with the data from a multiplex kinase assay using full length protein substrates. For this, P31-Fuji cells (an acute myeloid leukaemia cell line) were lysed and the kinase activity in total cell lysates measured using the protocols disclosed in WO 07/127,767 or using the protocols disclosed herein. Before lysis, cells were divided into two groups—(1) control and (2) treated with LY294002 (an inhibitor of PI3K which controls downstream protein kinases that phosphorylate the Aktide).

PI3K signalling activity = assay: Kinase reaction on immobilized BAD with lysates of serum-stimulated NIH-3T3 cells pre-treated or not with inhibitors, LC-MS readout; settings: starved NIH-3T3 cells pre-treated with inhibitor, 10% fetal calf serum 5 minutes before lysis
Protocol: Starved NIH-3T3 cells, pre-treated or not with the inhibitors Wortmannin (WM) or PD98059 (PD), were stimulated with 10% fetal calf serum for 5 minutes prior to cell lysis. Cell lysates were mixed with immobilized BAD and ATP/Mg^2+ and reactions allowed to occur at 37° C. for the indicated times. Reactions were stopped and beads washed to remove lysate components and to buffer exchange to 50 mM ammonium bicarbonate. Immobilized phosphorylated BAD was digested with trypsin and resultant peptides analysed by LC-MS and LC-MS/MS.
Mass spectrometry was used to multiplex the measurement of protein kinase activities, using BAD as a substrate for in vitro reactions. BAD is a known substrate of the protein kinase AKT/PKB, which is downstream of PI3K and upstream mTORC1. Mouse His-Tag-BAD protein was immobilized to SEPHAROSE® beads. In subsequent experiments, human proteins were synthesised with N-terminal GST and His tags separated by a PreScission protease cleavage site. Purification was performed with glutathione S-sepharose chromatography. […] These immobilized proteins were used as substrates for kinase reactions using total cell lysates as an enzyme source.
Starved NIH-3T3 cells, pre-treated or not with the inhibitors WM or PD, were stimulated with 10% fetal calf serum for 5 minutes prior to cell lysis. Cell lysates were mixed with immobilized BAD and ATP/Mg^2+ and reactions allowed to occur at 37° C. for the times indicated in FIG. 3. Reactions were stopped, and the beads washed three times to remove lysate components and to buffer exchange to 50 mM ammonium bicarbonate. For each wash, beads were isolated from the reaction by magnetic separation using a magnet. Immobilised phosphorylated BAD was digested with trypsin and resultant peptides analysed by LC-MS and LC-MS/MS. […] These observed activities increased when serum was added to the medium prior to lysis and were sensitive to the addition of wortmannin (WM) but not the MEK inhibitor PD98059 (PD), thus arguing that these activities are a measure of WM target inhibition, probably PI3K signalling activity, a known target of WM, and are probably downstream PI3K.

[3] = Pool 1, P31-Fuj AML cells, 10 mM LY204002 for 1 hr
[4] = Pool 2, P31-Fuj AML cells, 10 mM LY204002 for 1 hr
[5] = full length protein substrate, P31-Fuji cells treated with LY294002 before lysis, vs control

## O=c1cc(N2CCOCC2)oc2c(-c3ccccc3)cccc12 [Ly294002, LY294002]
PI3K [1]; [3]
  relative kinase activity (normalized, log 2), phosphopeptide Annexin MYGISLCQAILDETKGDYEK SEQ ID NO: 11: 0.429
  relative kinase activity (normalized, log 2), phosphopeptide Beta Catenin AAVSHWQQQSYLDSGIHSGATTTAPSLSGK SEQ ID NO: 12: −1.337
  relative kinase activity (normalized, log 2), phosphopeptide Beta Catenin TSMGGTQQQFVEGVR SEQ ID NO: 13: −0.5836
  relative kinase activity (normalized, log 2), phosphopeptide SMAD-1 HSEYNPQHSLLAQFR SEQ ID NO: 6: −2.2905
  relative kinase activity (normalized, log 2), phosphopeptide myc CHVSTHQHNYAAPPSTR SEQ ID NO: 7: 0.1282
  relative kinase activity (normalized, log 2), phosphopeptide myc FELLPTPPLSPSR SEQ ID NO: 8: 0.1492
  relative kinase activity (normalized, log 2), phosphopeptide myc FELLPTPPLSPSRR SEQ ID NO: 9: −0.0685
  relative kinase activity (normalized, log 2), phosphopeptide myc VKLDSVR SEQ ID NO: 10: -0.3467
PI3K [1]; Pool 1, P31-Fuj AML cells, LY204002 for 1 hr
  relative kinase activity (normalized to mean of control and treated, log 2 converted), phosphopeptide SMAD-1 RVESPVLPPVLVPR SEQ ID NO: 5: −0.6559
PI3K [1]; [4]
  relative kinase activity (normalized, log 2), phosphopeptide 4ebp1 TPPRDLPTIPGVTSPSSDEPPMEASQSHLR SEQ ID NO: 19: −4.332
  relative kinase activity (normalized, log 2), phosphopeptide S6 DIPGLTDTTVPR SEQ ID NO: 14: −0.573
  relative kinase activity (normalized, log 2), phosphopeptide S6 DIPGLTDTTVPRR SEQ ID NO: 15: 0.007685
  relative kinase activity (normalized, log 2), phosphopeptide foxo AVSMDNSNKYTK SEQ ID NO: 18: −0.6542
  relative kinase activity (normalized, log 2), phosphopeptide foxo HNLSLHSR SEQ ID NO: 17: −0.1853
  relative kinase activity (normalized, log 2), phosphopeptide foxo WPGSPTSR SEQ ID NO: 16: −0.6519
  relative kinase activity (normalized, log 2), phosphopeptide p53 ALPNNTSSSPQPK SEQ ID NO: 21: −5.826
  relative kinase activity (normalized, log 2), phosphopeptide p53 CSDSDGLAPPQHLIR SEQ ID NO: 22: −3.078
  relative kinase activity (normalized, log 2), phosphopeptide p53 RALPNNTSSSPQPK SEQ ID NO: 23: −1.587
  relative kinase activity (normalized, log 2), phosphopeptide p53 SVTCTYSPALNK SEQ ID NO: 20: −2.051
PI3K [1]; [5]
  reduction of kinase activity towards Ser94 on the substrate 4EBP1: 95%
  reduction of kinase activity towards Ser121 on the substrate p53: 99%
PI3K [2]
  reduction on the kinase activity towards the Aktide: about 85%

## COc1cccc(-c2cc(=O)c3ccccc3o2)c1N [PD98059]
PI3K signalling activity
  kinase activity towards BAD pS136 (SEQ ID NO: 4): not sensitive
  kinase activity towards BAD pS170 (SEQ ID NO: 3): not sensitive
PI3K signalling activity; listed as PD
  kinase activity towards BAD pS136 (SEQ ID NO: 4): sensitive to the addition of WM but not PD
  kinase activity towards BAD pS170 (SEQ ID NO: 3): sensitive to the addition of WM but not PD
